Experimental data taken from US5254550A, “Prolinal derivatives and pharmaceutical compositions thereof” (Ono Pharmaceutical Co., Ltd., priority 1986, dated 1993).
Residues, ends and D or L forms follow the SMILES beside them. *: point of attachment. Cbz = O=C(OCc1ccccc1)*; CH2Cl = ClC*

Molecular target: T1, prolyl endopeptidase (Bos taurus, UniProt Q9XTA2)
T1 construct: prolyl endopeptidase which was purified from bovine brain; from tissue; host or cells: bovine brain (purified by the method of J. Biochem., 94, 1179 (1983))
T1 sequence (Q9XTA2 whole entry): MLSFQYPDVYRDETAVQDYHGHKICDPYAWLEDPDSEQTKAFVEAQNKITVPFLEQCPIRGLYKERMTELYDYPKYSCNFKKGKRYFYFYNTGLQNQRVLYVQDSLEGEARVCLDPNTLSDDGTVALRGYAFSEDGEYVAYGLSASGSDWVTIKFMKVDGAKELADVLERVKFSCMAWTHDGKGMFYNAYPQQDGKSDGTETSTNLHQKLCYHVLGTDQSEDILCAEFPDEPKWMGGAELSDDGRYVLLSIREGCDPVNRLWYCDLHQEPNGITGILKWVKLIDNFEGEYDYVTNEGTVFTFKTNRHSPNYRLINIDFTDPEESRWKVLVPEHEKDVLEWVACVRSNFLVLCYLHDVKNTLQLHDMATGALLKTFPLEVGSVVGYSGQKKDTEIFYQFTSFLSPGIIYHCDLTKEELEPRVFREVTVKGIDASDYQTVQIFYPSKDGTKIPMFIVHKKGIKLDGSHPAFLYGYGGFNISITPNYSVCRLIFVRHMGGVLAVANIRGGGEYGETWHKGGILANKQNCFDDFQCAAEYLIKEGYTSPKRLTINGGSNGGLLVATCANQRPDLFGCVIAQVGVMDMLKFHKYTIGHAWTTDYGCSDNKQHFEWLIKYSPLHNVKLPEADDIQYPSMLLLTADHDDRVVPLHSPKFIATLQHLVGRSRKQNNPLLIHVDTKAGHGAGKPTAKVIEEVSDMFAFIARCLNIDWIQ
Assay: Prolyl Endopeptidase Inhibitory Activity in Vitro
Type: biochemical
Conditions: prolyl endopeptidase purified from bovine brain; substrate N-benzyloxycarbonyl-glycyl-prolyl-p-nitroanilide; pH 7.5, 37° C., 15 mins preincubation, 405 nm; read-out: Concentration for 50% inhibition IC50
Experimental: Inhibitory activity of prolyl endopeptidase was measured by the following test system.
A mixed solution of 20 mM tris-HCl buffer (pH 7.5; 935 μl; containing 10 mM EDTA and 10 mM mercaptoethanol), a solution of a compound of the present invention in DMSO (10 μl) and a solution of prolyl endopeptidase which was purified from bovine brain (0.13 unit; prepared by the method described in J. Biochem., 94, 1179 (1983)) in tris-HCl buffer (15 μl) was preincubated for 15 mins at 37° C.
To the solution, 5 mM of N-benzyloxycarbonyl-glycyl-prolyl-p-nitroanilide (40 μl) in a mixture of 40% dioxane-60% water was added. The solution was incubated for 1 min at the same temperature.
Optical absorption (a1) at 405 nm of the solution, and optical absorption (a2) at 405 nm of the solution after more 30 mins' incubation at 37° C. were measured.
Optical absorptions (b1 and b2) of the solutions using DMSO instead of the solution of the compound of the present invention were also measured.
Inhibitory ratio was calculated by the following expression and IC50 (required concentration for 50% inhibition) was obtained (See Protein, Nucleic acid and Enzyme 25(6), 513, 1980). [formula]
`O=C[C@@H]1CCCN1C(=O)CCC(=O)NCc1ccco1` [2 (dd), N-[3-[N-(2-furylmethyl)-carbamoyl]propanoyl]-L-prolinal] gave an IC50 of 790 nM. Molecule `Cc1ccc(CN(C(=O)CCC(=O)N2CCC[C@H]2C=O)c2ccccc2)cc1` [2 (n), N-[3-[N-(4-methylphenyl-methyl)-N-phenyl-carbamoyl]propanoyl]-L-prolinal] has an IC50 of 1.9 nM. In the case of `O=C[C@@H]1CCCN1C(=O)CCC(=O)NCCc1ccccc1` [Example 1, N-[3-[N-(2-phenylethyl)carbamoyl]propanoyl]-L-prolinal], the IC50 is reported as 130 nM. With `O=C[C@@H]1CCCN1C(=O)CCC(=O)NCc1cccc2ccccc12` [2 (y), N-[3-[N-(1-naphthyl-methyl)carbamoyl]propanoyl]-L-prolinal] the IC50 was 43 nM. Molecule `O=C[C@@H]1CCCN1C(=O)CCC(=O)NCC(c1ccccc1)c1ccccc1` [1 (bb), N-[3-[N-(2,2-diphenylethyl)carbamoyl]propanoyl]-L-prolinal] has an IC50 of 1200 nM. Molecule `O=C[C@@H]1CCCN1C(=O)CCC(=O)NCCCCCc1ccccc1` [1 (h), N-[3-[N-(5-phenylpentyl)carbamoyl]propanol]-L-prolinal] has an IC50 of 70 nM. `O=C[C@@H]1CCCN1C(=O)CCC(=O)NCc1ccccc1Cl` [2 (e), N-[3-[N-(2-chlorobenzyl)-carbamoyl]propanoyl]-L-prolinal] showed an IC50 of 160 nM. `Cc1ccc(CNC(=O)CCC(=O)N2CCC[C@H]2C=O)cc1` [2 (a), N-[3-[N-(4-methylbenzyl)-carbamoyl]propanoyl]-L-prolinal] showed an IC50 of 23 nM. In the case of `CN(Cc1ccccc1)C(=O)C=CC(=O)N1CCC[C@H]1C=O` [1 (s), N-[3-(N-benzyl-N-methylcarbamoyl)acryloyl]-L-prolinal], the IC50 is reported as 1900 nM. `O=C[C@@H]1CCCN1C(=O)CCC(=O)NCc1ccccc1` [1 (a), N-[3-(N-benzylcarbamoyl)propanoyl)-L-prolinal] gave an IC50 of 230 nM. Work on `O=C[C@@H]1CCCN1C(=O)[C@@H]1CCC[C@H]1C(=O)NCc1ccccc1` [1 (x), N-[(1R,2R)-2-(N-benzylcarbamoyl)cyclopentane-1-carbonyl]-L-prolinal] yielded an IC50 of 14 nM.

System: prolyl endopeptidase
Assay: not given
Conditions: See J. Neurochem., 41, 69 (1983); cited from earlier work
For `O=C(NCC(=O)N1CCC[C@H]1C(=O)CCl)OCc1ccccc1` [N-benzyloxycarbonyl-glycyl-L-proplyl-chloromethane] (Cbz-Gly-Pro-CH2Cl), the “inhibition of prolyl endopeptidase (in words)” value is given as “strongly inhibit”.
